Results from patent US20250073194A1, “RXR AGONISTS IN EYE DISORDERS” (Baylor College of Medicine, priority 2022, published 2025).
“Also recorded” adds a separate entry of the source.

How the values were obtained:
γδ T cells [1] = test: IL-17A/F in supernatants of stimulated cultured γδ T cells (ELISA); format: cell-based, mouse; conditions: for effect on IL-17A/F cytokine concentration in supernatants: C57BL/6 spleen γδ T cells, anti-CD3/CD28 beads plus recombinant IL-23, 10 and 100 nM (FIG. 12); for suppressive effect on supernatant IL-17 concentration: bead+IL-23 stimulated, 100 nM 9-cis RA, 96 hours
Description: (§1) Pooled γ/δ T17 cells from the spleens of 8-10 week old B6 and Pinkie mice were isolated using the TCR γ/δ T cells Isolation Kit according to the manufacturer's instruction (Miltenyi Biotec, Bergisch Gladbach, Germany). To determine the effect of 9CisRA and monocytes conditional media on IL17 cytokine production, the purified γδ T17 cells were stimulated with anti-CD3/CD28 Dynabeads (Catalog #11452D, Life Technologies AS, Norway) alone or in combination with IL-23 (10 ng/ml, eBioscience), 9-cisRA (100 nM) or monocyte conditioned media for 96 hours for cytokine measurement.
(§2) Mouse IL17 was measured from cell cultured supernatant after 96 hours incubation using a mouse IL-17 DuoSet Enzyme-linked immunosorbent assay (ELISA) (R&D systems, Minneapolis, USA)

monocytes [2] = test: Nanostring myeloid innate immunity array of LPS-stimulated cultured monocytes; format: cell-based, mouse; conditions: 100 nM 9-cis RA added to culture media
Description: (§3) Monocytes were purified from 3 days cultured mouse bone marrow cells using the monocytes isolation kit, according to the manufacturer's instruction (BM, Miltenyi Biotec, Bergisch Gladbach, Germany). 5×10^5 monocytes plated in a 48 well plate were preincubated with 100 nM 9-cisRA for 1 hour followed by stimulation with 0.5 μg/ml LPS for 4 hours for RNA or overnight for cytokines. The total RNA was extracted using an RNeasy® Plus Mimi Kit (Cat No. 74134, QIAGEN GmbH, Hilden, Germany) according to manufacturer's instruction. The RNA and collected supernatants were stored at −80° C. until further use.
This was performed by the Genomic and RNA Profiling Core at Baylor College of Medicine using the NanoString Technologies nCounter Gene Expression Mouse Myeloid Innate Immunity V2 Panel codeset (NS_MM_Myeloid_V2.0) containing 770 unique pairs of 35-50 bp reporter probes and biotin-labeled capture probes, including internal reference controls (NanoString, Seattle, WA) as previously described. (Alam et al., 2021a). Data was analyzed by ROSALIND® (https://rosalind.bio/), with a HyperScale architecture developed by ROSALIND, Inc. (San Diego, CA).

monocytes [3] = conditions: 9-cis RA treated monocytes; cited from earlier work
monocytes [4] = test: Stimulatory activity of conditioned media from LPS-treated monocytes on IL-17 production by γδ T cells; format: cell-based, mouse; conditions: LPS-stimulated cultured monocytes treated with 100 nM 9-cisRA
Description: as §3, §1, §2

γδ T cells [5] = conditions: stimulated with anti-CD28 antibody and cytokine cocktail of IL-23 and IL-1; cited from earlier work

In the case of `C=CCc1ccc(O)c(-c2ccc(O)c(CC=C)c2)c1` [honokiol], the “effect on IL-17A/F cytokine concentration in supernatants” value (“effect … in supernatants” for short) (γδ T cells [1]) is reported as “suppressive effects”.

With `CCCCCCCC/C=C\CCCCCCCC(=O)O` [oleic acid] the “effect … in supernatants” value (γδ T cells [1]) was “suppressive effects”.

In the case of `CC1=C(/C=C/C(C)=C\C=C\C(C)=C\C(=O)O)C(C)(C)CCC1` [9-cis RA, 9-cis retinoic acid], the “suppressive effect on supernatant IL-17 concentration” value (γδ T cells [1]; B6 γδ T cells) is reported as 74%, the “effect … in supernatants” value (γδ T cells [1]) is reported as “suppressive effects” and the “suppressive effect on supernatant IL-17 concentration” value (γδ T cells [1]; Pinkie γδ T cells) is reported as 46%. The “suppression of IL-17 production” value (γδ T cells [1]; cultured γδ T cells stimulated by CD28 beads or beads plus IL-23) was > 70%, the “supernatant IL-17 concentration” value (γδ T cells [1]; stimulated γδ T cells from both strains (B6 and Pinkie), 100 nM) was “suppresses; also recorded: significantly reduced” and the “expression of γδT17 inducing cytokines (Il23a, Il12b, Il1α, Il1β, Tnf-α)” value (monocytes [2]) was “suppressed; also recorded: reduced”. The “expression of γδT17 inducing cytokines (Il23a, Il12b, Il1α, Il1β, Tnf-α)” value (monocytes [2]; listed as 9-cisRA) was “suppresses”, the “levels of IL-1β and IL-23β in supernatants” value (monocytes [3]) was “reduced levels” and the “stimulatory activity of monocyte conditioned media on γδ T cell IL-17 production” value (monocytes [4]) was “suppresses; also recorded: significantly reduced”. For the same compound, the “stimulatory activity of monocyte conditioned media on γδ T cell IL-17 production” value (monocytes [4]; listed as 9-cisRA) was “significantly reduced”.

With `CC/C=C\C/C=C\C/C=C\C/C=C\C/C=C\C/C=C\CCC(=O)O` [DHA, omega-3 docosahexaenoic acid] the “effect … in supernatants” value (γδ T cells [1]) was “suppressive effects”.

For `CC1=C(/C=C/C(C)=C/C=C/C(C)=C/C(=O)O)C(C)(C)CCC1` [all trans retinoic acid], the “effect … in supernatants” value (γδ T cells [1]) was “suppressive activity”.

For `CC1(C)CCC(C)(C)c2cc(NC(=O)c3ccc(C(=O)O)cc3)ccc21` [AM80], the “IL-17 production by γδ T cells” value (γδ T cells [5]) is given as “suppress”.

For `C=C(c1ccc(C(=O)O)cc1)c1cc2c(cc1C)C(C)(C)CCC2(C)C` [Bexarotene], the “effect … in supernatants” value (γδ T cells [1]) was “suppressive effects”.

In the case of `CN1c2ccc([N+](=O)[O-])cc2N=C(c2ccc(C(=O)O)cc2)c2cc3c(cc21)C(C)(C)CCC3(C)C` [HX531], the “effect on suppressive activity of the RAR agonist ATRA on IL-17A/F” value (γδ T cells [1]; C57BL/6 γδ T cells, anti-CD3/CD28 beads plus IL-23 (FIG. 12)) is reported as “did not have any effect” and the “effect on the suppressive effects of RXRα agonists on IL-17A/F” value (γδ T cells [1]; C57BL/6 γδ T cells, anti-CD3/CD28 beads plus IL-23, with 9-cisRA, Bexarotene, DHA, oleic acid, honokiol (FIG. 12)) is reported as “blocked”.
